# Measured values published in patent US20180312542A1, “ENDOSOMAL ESCAPE PEPTIDES” (priority 2015, published 2018).
# Legend:
# [1] = test system: BSR.LNL.tdTomato cells; experiment: Cre delivery assay of expressed fusion proteins (tdTomato, flow cytometry); type: cell-based, hamster; conditions: for overall recombination efficiency versus aurein 1.2: variant fused to +36 GFP-Cre, 250 nM; for recombination signal above that of +36 GFP-Cre: 250 nM expressed fusion protein; for recombination levels higher than that of +36 GFP-Cre alone: 1 μM expressed fusion protein
# Method: FIGS. 3A-3B. Efficacy and toxicity of recombinant expression fusions of aurein 1.2 (“E”) and citropin 1.3 (“U”). […] The percentage of tdTomato positive cells was determined by flow cytometry. Protein fusions were delivered at 125 nM, 250 nM, 500 nM, and 1 μM. (FIG. 3B) Toxicity of aurein 1.2 and citropin 1.3 as determined by CellTiterGlo (Promega) assay. Protein fusions were delivered at 125 nM, 250 nM, 500 nM, and 1 μM. […] Cells were treated with 250 nM protein for 4 hours in serum-free media. Cells were washed and supplanted with full DMEM and incubated for 48 hours. Error bars represent the standard deviation of three independent biological replicates.
# (§1) FIGS. 4A-4B. Activity and cytotoxicity of aurein 1.2 variants fused to +36 GFP-Cre. (FIG. 4A) The percentage of tdTomato positive cells was determined by flow cytometry. (FIG. 4B) Toxicity as determined by CellTiterGlo (Promega) assay. […] Cells were treated with 250 nM protein for 4 hours in serum-free DMEM. Cells were washed and supplanted with full DMEM and incubated for 48 hours.
# Both aurein 1.2-+36 GFP-Cre and citropin 1.3-+36 GFP-Cre were cloned, expressed, and purified as fusion proteins.
# To identify the residues involved in enhancing non-endosomal protein delivery, an alanine scan of the 13 amino acid positions of aurein 1.2 was performed by cloning, expressing, and purifying each alanine mutant of aurein 1.2-+36 GFP-Cre. The resulting fusion proteins were assayed in BSR.LNL.tdTomato reporter cells as described above (Table 2). […] In total, 19 mutants of aurein 1.2 were generated and tested using the Cre recombination assay.
# (§2) Uptake and delivery assays for Cre fusion proteins were performed as previously described. Briefly, proteins were diluted in serum-free DMEM and incubated on the cells in 48-well plates for 4 hours at 37° C. Following incubation, the cells were washed three times with PBS+20 U/mL heparin. The cells were incubated a further 48 hours in serum-containing media prior to trypsinization and analysis by flow cytometry. All flow cytometry were carried out on a BD Fortessa flow cytometer (Becton-Dickinson) using 530/30 nm and 610/20 nm filter sets. Toxicity for aurein 1.2 and citropin 1.3 validation assays was determined using CellTiterGlo assay (Promega) in 96-well plates following manufacturer protocol. Toxicity for alanine scan mutational analysis was determined with LIVE/DEAD fixable far-red dead cell stain (Life Technologies) with 635 nm laser and 670/30 nm filter.
# [2] = test system: BSR.LNL.tdTomato cells; experiment: Toxicity of aurein 1.2 variants fused to +36 GFP-Cre; type: cell-based, hamster; conditions: variant fused to +36 GFP-Cre, 250 nM
# Method: as §1
# To identify the residues involved in enhancing non-endosomal protein delivery, an alanine scan of the 13 amino acid positions of aurein 1.2 was performed by cloning, expressing, and purifying each alanine mutant of aurein 1.2-+36 GFP-Cre. The resulting fusion proteins were assayed in BSR.LNL.tdTomato reporter cells as described above (Table 2). Seven positions were moderately to highly intolerant of alanine substitution. Six positions retained >70% of the activity of unmutated aurein 1.2-+36 GFP-Cre (FIG. 4A). […]
# Uptake and delivery assays for Cre fusion proteins were performed as previously described. […] Toxicity for aurein 1.2 and citropin 1.3 validation assays was determined using CellTiterGlo assay (Promega) in 96-well plates following manufacturer protocol. Toxicity for alanine scan mutational analysis was determined with LIVE/DEAD fixable far-red dead cell stain (Life Technologies) with 635 nm laser and 670/30 nm filter.
# [3] = test system: BSR.LNL.tdTomato cells; experiment: Primary screen for cytosolic delivery of Cre recombinase (tdTomato, fluorescence image analysis); type: cell-based, hamster; conditions: for cells expressing tdTomato (recombined cells): 250 nM protein, 4 h serum-free media, then 48 h, sortase-conjugated peptide or no peptide; for level of recombination in primary screen: 250 nM peptide-(+36 GFP)-Cre conjugate
# Method: FIG. 2. Primary screen for cytosolic delivery of Cre recombinase in BSR.LNL.tdTomato cells. Initial screen of 20 peptide-(+36 GFP)-Cre conjugated proteins. Cytosolic Cre delivery results in recombination and tdTomato expression. The percentage of tdTomato positive cells was determined by fluorescence image analysis. […] Cells were treated with 250 nM protein for 4 hours in serum-free DMEM. Cells were washed and supplanted with full DMEM and incubated for 48 hours. Error bars represent the standard deviation of three independent biological replicates.
# The ability of each peptide-(+36 GFP)-Cre recombinase fusion when added to culture media to effect recombination was assayed in BSR.LNL.tdTomato cells, a hamster kidney cell line derived from BHK-21 (FIG. 8). Because Cre recombinase must enter the cell, escape endosomes, enter the nucleus, and catalyze recombination to generate tdTomato fluorescence, this assay reflects the availability of active, non-endosomal recombinase enzyme that reaches the nucleus. […] See, e.g., Dijkstra at al. Biochimica et Biophysica Acta (BBA)-Molecular Cell Research 1984, 804, 58.
# The reporter BSR.LNL.tdTomato cells were incubated with 250 nM of each peptide-(+36 GFP)-Cre protein in serum-free media.
# BSR.LNL.tdTomato cells were plated at 10,000 cells per well in black 384-well plates (Aurora Biotechnologies). Cells were treated with Cre fusion proteins diluted in serum-free DMEM 24 hours after plating and incubated for 4 hours at 37° C. Following incubation, the cells were washed three times with PBS+20 U/mL heparin. The cells were incubated a further 48 h in serum-containing media. Cells were fixed in 3% paraformaldehyde and stained with Hoescht 33342 nuclear dye. Images were acquired on an ImageXpress Micro automated microscope (Molecular Devices) using a 4× objective (binning 2, gain 2), with laser- and image-based focusing (offset −130 μm, range ±50 μm, step 25 μm). Images were exposed for 10 ms in the DAPI channel (Hoechst) and 500 ms in the dsRed channel (tdTomato). Image analysis was performed using the cell-scoring module of MetaXpress software (Molecular Devices). All nuclei were detected with a minimum width of 1 pixel, maximum width of 3 pixels, and an intensity of 200 gray levels above background. Positive cells were evaluated for uniform signal in the dsRed channel (minimum width of 5 pixels, maximum width of 30 pixels, intensity >200 gray levels above background, 10 μm minimum stained area). In total, nine images were captured and analyzed per well, and 16 wells were treated with the same fusion protein. The primary screen was completed in biological triplicate.
# [4] = test system: cochlear hair cells and supporting cells of Cre reporter transgenic mice; experiment: In vivo protein delivery of Cre recombinase into mouse neonatal cochleas; conditions: for cochlear cells survived as compared to +36 GFP-Cre treatment: scala media
# Method: FIGS. 6A-6C. In vivo protein delivery of Cre recombinase into mouse neonatal cochleas. 0.4 μL of 50 μM+36 GFP-Cre or aurein 1.2-+36 GFP-Cre were injected into the scala media. (FIG. 6A) Five days after injection, cochlea were harvested. Inner hair cells (IHC), outer hair cells (OHC) and supporting cells in the sensory epithelium (SE) were imaged for the presence of tdTomato, which is only expressed following Cre-mediated recombination. Hair cells were labeled with antibodies against the hair-cell marker Myo7a. (FIG. 6B) To evaluate cytotoxicity, the number of outer hair cells and inner hair cells were measured by counting DAPI-stained cells. (FIG. 6C) The percentage of tdTomato positive cells, reflecting successful delivery of functional Cre recombinase, was determined by fluorescence imaging.
# To evaluate the ability of aurein 1.2 to increase the efficacy of cationic protein delivery in vivo, proteins were delivered to the inner ear of Cre reporter transgenic mice that express tdTomato upon Cre-mediated recombination. This animal model was chosen due to its confined injection volume, the presence of well-characterized cell types, and the existence of genetic deafness models that would facilitate future studies of protein delivery to treat hearing loss.
# Anesthetized postnatal day 2 (P2) mice were injected with 0.4 μL of 50 μM+36 GFP-Cre or aurein 1.2-+36 GFP-Cre solutions in the scala media to access the cochlear cells. Five days after injection, the cochleas were harvested for immunolabeling of inner ear cell markers and imaging for tdTomato florescence (FIG. 6A). Both the hair cells (Myo7a+) and supporting cells (Myo7a−) were evaluated for td Tomato signal. The total number of hair cells and supporting cells (by DAPI labeling) in the sensory epithelium (SE) was used to determine the relative toxicity of aurein 1.2-+36 GFP-Cre to the baseline treatment of +36 GFP-Cre ([…]).
# P1-2 Gt(ROSA)26Sor^tm14(CAG-tdTomato)Hze mice were used for aurein 1.2-+36-GFP-Cre and +36-GFP-Cre injection. The Rosa26-tdTomato mice were from the Jackson Laboratory. Animals were used under protocols approved by the Massachusetts Eye & Ear Infirmary IACUC committee. Mice were anesthetized by hypothermia on ice. Cochleostomies were performed by making an incision behind the ear to expose the cochlea. Glass micropipettes held by a micromanipulator were used to deliver the complex into the scala media, which allows access to inner ear hair cells. The total delivery volume for every injection was 0.4 μL per cochlea and the release was controlled by a micromanipulator at the speed of 69 nL/min.
# 5 days after injection, the mice were sacrificed and cochlea were harvested by standard protocols. See, e.g., Sage et al. Science 2005, 307, 1114. For immunohistochemistry, antibodies against hair-cell markers (Myo7a) and supporting cells (Sox2) were used following a previously described protocol. To quantify the number of tdTomato positive cells after aurein 1.2-+36-GFP-Cre and +36-GFP-Cre, we counted the total number of inner and outer hair cells in a region spanning 100 μm in the apex, middle, and base turn of the cochlea.
# [5] = test system: BSR.LNL.tdTomato cells; experiment: ATP-dependent cell viability assay (CellTiterGlo) 48 h after treatment; type: cell-based, hamster; conditions: for viability: 250 nM recombinant fusion; for viable cells: 1 μM treatment
# Method: FIGS. 3A-3B. Efficacy and toxicity of recombinant expression fusions of aurein 1.2 (“E”) and citropin 1.3 (“U”). (FIG. 3A) Cytosolic Cre delivery results in recombination and tdTomato expression. The percentage of tdTomato positive cells was determined by flow cytometry. Protein fusions were delivered at 125 nM, 250 nM, 500 nM, and 1 μM. (FIG. 3B) Toxicity of aurein 1.2 and citropin 1.3 as determined by CellTiterGlo (Promega) assay. Protein fusions were delivered at 125 nM, 250 nM, 500 nM, and 1 μM. […] Cells were treated with 250 nM protein for 4 hours in serum-free media. Cells were washed and supplanted with full DMEM and incubated for 48 hours. Error bars represent the standard deviation of three independent biological replicates.
# Next, the toxicity of each fusion protein was evaluated at a range of concentrations (125 nM to 1 μM) using an ATP-dependent cell viability assay at 48 h after treatment. […] Applying 1 μM treatments decreased cell viability to 70% and 66%, respectively (FIG. 3B). In light of its activity and low cytotoxicity at 250 nM, the ability of aurein 1.2 to enhance cytosolic protein delivery was characterized in depth.
# as §2
# [6] = test system: BSR.LNL.tdTomato cells; experiment: Delivery efficiency of aurein 1.2 in trans with +36 GFP-Cre (Cre recombination, flow cytometry); type: cell-based, hamster; conditions: 125-500 nM +36 GFP-Cre mixed with aurein 1.2 (1-100 μM) or aurein 1.2-+36 GFP (125-500 nM)
# Method: Determining the delivery efficiency of aurein 1.2 in trans with +36 GFP-Cre. 125 nM, 250 nM, or 500 nM+36 GFP-Cre was mixed with either aurein 1.2-+36 GFP (125 nM, 250 nM, 500 nM) or with aurein 1.2 (1 μM, 10 μM, 100 μM), then assayed for Cre-mediated recombination as measured by tdTomato signal during flow cytometry. […] The expressed fusion aurein 1.2-+36 GFP-Cre protein at 125 nM, 250 nM, or 500 nM was used as the positive control.
# To test this possibility, we assayed functional Cre recombinase delivery of +36 GFP-Cre mixed with aurein 1.2, or mixed with aurein 1.2-+36 GFP fusion protein lacking Cre at various concentrations (FIG. 9).
# [7] = middle, 0.4 μL of 50 μM, 5 days
compound,measurement,setting,value
"GLFDIIKKIAEAF [S12A, aurein 1.2 variant, expressed as recombinant fusion protein with +36 GFP-Cre]",overall recombination efficiency versus aurein 1.2,[1],potentially improved
same,toxicity versus aurein 1.2,[2],increased toxicity
"CCN(CC)CCCC(C)Nc1ccnc2cc(Cl)ccc12 (stereo not shown) [chloroquine, reference compound]",recombined cells,[3]; 250 nM +36 GFP-Cre incubated with 100 μM chloroquine (positive control),48%
"aurein 1.2-+36 GFP-Cre: fusion protein of aurein 1.2, +36 GFP and Cre recombinase, SEQ ID NO: 77",cells expressing tdTomato (recombined cells),[3],40%
same,"Cre-mediated recombination, inner hair cells (IHC)","[4]; apex, 0.4 μL of 50 μM, 5 days",100%
same,"Cre-mediated recombination, outer hair cells (OHC)","[4]; apex, 0.4 μL of 50 μM, 5 days",96%
same,cochlear cells survived as compared to +36 GFP-Cre treatment,"[4]; apex, 0.4 μL of 50 μM, 5 days",96%
same,"Cre-mediated recombination, inner hair cells (IHC)","[4]; base, 0.4 μL of 50 μM, 5 days",70%
same,"Cre-mediated recombination, outer hair cells (OHC)","[4]; base, 0.4 μL of 50 μM, 5 days",69%
same,cochlear cells survived as compared to +36 GFP-Cre treatment,"[4]; base, 0.4 μL of 50 μM, 5 days",66%
same,"Cre-mediated recombination, inner hair cells (IHC)",[4]; [7],94%
same,"Cre-mediated recombination, outer hair cells (OHC)",[4]; [7],91%
same,cochlear cells survived as compared to +36 GFP-Cre treatment,[4]; [7],92%
same,viability,[5],87%
same,viable cells,[5],70%
same,recombination signal above that of +36 GFP-Cre,[1],10.4 fold
same,recombination levels higher than that of +36 GFP-Cre alone,[1],3.8 fold
"+36 GFP-Cre: superpositively charged GFP fused to Cre recombinase, SEQ ID NO: 76; no-peptide control [reference compound]",cells expressing tdTomato (recombined cells),[3],4.5%
same,recombination in middle or base cochlear hair cells or cochlear supporting cells,"[4]; 0.4 μL of 50 μM, 5 days",not in the middle or base of the cochlear hair cells or any cochlear supporting cells
same,"Cre-mediated recombination, inner hair cells (IHC)","[4]; apex, 0.4 μL of 50 μM, 5 days",4.4%
same,viable cells,[5],85%
GLFDIIKKVASVIGGL [citropin 1.3],level of recombination in primary screen,[3],moderate level of recombination
"citropin 1.3-+36 GFP-Cre: fusion protein of citropin 1.3, +36 GFP and Cre recombinase, SEQ ID NO: 78",viability,[5],84%
same,viable cells,[5],66%
same,recombination signal above that of +36 GFP-Cre,[1],did not induce any enhanced Cre delivery
same,recombination levels higher than that of +36 GFP-Cre alone,[1],3.0 fold
"GLFDIIKRIAESF [K8R, aurein 1.2 variant, expressed as recombinant fusion protein with +36 GFP-Cre]",overall recombination efficiency versus aurein 1.2,[1],potentially improved
same,toxicity versus aurein 1.2,[2],increased toxicity
GLFDIIKKIAESF [aurein 1.2],level of recombination in primary screen,[3],highest level of recombination
same,potency of Cre delivery into cochlear hair cells when fused with aurein 1.2 versus absence of the peptide,"[4]; live mice, inner ear",> 20 fold
same,effect on functional delivery of +36 GFP-Cre when added in trans,[6],did not affect
